Test results published in patent publication US20200131454A1, “ALCOHOL CONTAINING BIOFIILM-INHIBITING NON-ANTIMICROBIAL CLEANSING COMPOSITION” (GOJO Industries, Inc., priority 2018, published 2020).

Key:
[1] = Forearm controlled application test (FCAT), transepidermal water loss (TEWL); type: in vivo, human
Description: Topical compositions were tested on skin samples for their ability to improve or maintain skin hydration and limit transepidermal water loss (TEWL). Measurement of the TEWL, expressed in grams per square meter and per hour, is used for studying the water barrier function of the human skin. The more perfect the skin protective coat, the higher the water content and the lower the TEWL. For each of the tests, a negative control was used, which included treatment with 8% SLS. An untreated skin sample was also tested for comparison. The tests were performed using the forearm controlled application test (FCAT) methodology. The various samples were applied to test sites on a forearm over the course of several days. On each day, up to six applications were made and the change in TEWL and hydration levels were recorded. The hydration levels were measured using a Corneometer® based on capacitance measurement of a dielectric medium. The Corneometer® measures the change in the dielectric constant due to skin surface hydration changing the capacitance of a precision capacitor. The measurement can detect even slight changes in the hydration level. The change in TEWL and hydration levels represent the change observed for that particular sample compared to a baseline (the transepidermal water content or hydration level prior to treatment). […]

[2] = Forearm controlled application test (FCAT), skin hydration by Corneometer; type: in vivo, human
Description: Topical compositions were tested on skin samples for their ability to improve or maintain skin hydration and limit transepidermal water loss (TEWL). Measurement of the TEWL, expressed in grams per square meter and per hour, is used for studying the water barrier function of the human skin. The more perfect the skin protective coat, the higher the water content and the lower the TEWL. For each of the tests, a negative control was used, which included treatment with 8% SLS. An untreated skin sample was also tested for comparison. The tests were performed using the forearm controlled application test (FCAT) methodology. The various samples were applied to test sites on a forearm over the course of several days. On each day, up to six applications were made and the change in TEWL and hydration levels were recorded. The hydration levels were measured using a Corneometer® based on capacitance measurement of a dielectric medium. The Corneometer® measures the change in the dielectric constant due to skin surface hydration changing the capacitance of a precision capacitor. The measurement can detect even slight changes in the hydration level.
The change in TEWL and hydration levels represent the change observed for that particular sample compared to a baseline (the transepidermal water content or hydration level prior to treatment). […]

Compound: CCCCCCCCCCCCOS(=O)(=O)[O-].[Na+] [negative control, SLS]
- TEWL ([1]; Example 1, FIG. 6, change compared to baseline): highest TEWL
- change in TEWL ([1]; Example 2, FIG. 7, wet and dry application, 3 and 5 days of treatment): significant TEWL
- hydration levels ([2]; Example 1, FIG. 5, change compared to baseline): lowest hydration levels
- change in hydration levels ([2]; Example 2, FIG. 8, wet and dry application, 3 and 5 days of treatment): significant reduction in hydration level
